In the supplement of paper PMC11061612:

Legend:
Assay in all cases: Bliss excess, mean over the matrix (fraction); higher = more synergy
[1] = system: SKG-IIIa (Cervical Carcinoma)
How it was run: (§1)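 Cell lines in DMEM/F12 or RPMI with 10% FBS were plated in 1536-well plates, held 24 hours at 37°C, 5% CO2, then given two-drug dose matrices for 72 hours (DMSO typically 0.2%). Viability was read by CellTiter-Glo 2.0 luminescence and scaled as inhibition from 0 (vehicle wells) to 1 (blank wells). Combination Emax is the second-highest inhibition in the matrix; Bliss excess is observed combination effect minus expected EA + EB − EA·EB, EA and EB being single-agent effects.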

[2] = system: SUP-M2 (T-Cell Non-Hodgkin's Lymphoma)
How it was run: as §1

[3] = system: NCI-H596 (Other Solid Carcinomas)
How it was run: as §1

SK-N-SH (Neuroblastoma) = system: SK-N-SH (Neuroblastoma)
How it was run: as §1

UACC-257 (Melanoma) = system: UACC-257 (Melanoma)
How it was run: as §1

[4] = system: Raji (Burkitt's Lymphoma)
How it was run: as §1

NB1 (Neuroblastoma) = system: NB1 (Neuroblastoma)
How it was run: as §1

NCI-H2373 (Mesothelioma) = system: NCI-H2373 (Mesothelioma)
How it was run: as §1

[5] = system: TUR (Acute Myeloid Leukemia)
How it was run: as §1

[6] = system: LCLC-103H (Non-Small Cell Lung Carcinoma)
How it was run: as §1

[7] = system: SNU-C2B (Colorectal Carcinoma)
How it was run: as §1

[8] = system: CPC-N (Small Cell Lung Carcinoma)
How it was run: as §1

NCI-H226 (Mesothelioma) = system: NCI-H226 (Mesothelioma)
How it was run: as §1

[9] = system: MS-1 (Small Cell Lung Carcinoma)
How it was run: as §1

ES6 (Ewing's Sarcoma) = system: ES6 (Ewing's Sarcoma)
How it was run: as §1

IST-MEL1 (Melanoma) = system: IST-MEL1 (Melanoma)
How it was run: as §1

[10] = system: CL-11 (Colorectal Carcinoma)
How it was run: as §1

T47D (Breast Carcinoma) = system: T47D (Breast Carcinoma)
How it was run: as §1

AM-38 (Glioblastoma) = system: AM-38 (Glioblastoma)
How it was run: as §1

[11] = system: MOLT-13 (T-Lymphoblastic Leukemia)
How it was run: as §1

Row | Compound | Bliss excess [1] | Bliss excess [2] | Bliss excess [3] | Bliss excess (SK-N-SH (Neuroblastoma)) | Bliss excess (UACC-257 (Melanoma)) | Bliss excess [4] | Bliss excess (NB1 (Neuroblastoma)) | Bliss excess (NCI-H2373 (Mesothelioma)) | Bliss excess [5] | Bliss excess [6] | Bliss excess [7] | Bliss excess [8] | Bliss excess (NCI-H226 (Mesothelioma)) | Bliss excess [9] | Bliss excess (ES6 (Ewing's Sarcoma)) | Bliss excess (IST-MEL1 (Melanoma)) | Bliss excess [10] | Bliss excess (T47D (Breast Carcinoma)) | Bliss excess (AM-38 (Glioblastoma)) | Bliss excess [11]
1 | Cc1cc2ncnn2cc1Nc1ncc2c(n1)n(C1CCOCC1)c(=O)n2C [AZD7648] + CCN(CCO)CCCOc1ccc2c(Nc3cc(CC(=O)Nc4cccc(F)c4)[nH]n3)ncnc2c1 [AZD2811] (first compound max 10 µM, 7x7, partner max 1 µM) | -0.0161 | -0.0267 | -0.0576 | 0.0001 | 0.0315 | 0.0312 | -0.0026 | -0.034 | 0.0523 | -0.026 | 0.0265 | -0.0306 | -0.0733 | 0.0104 | -0.0042 | 0.03 | 0.0274 | 0.055 | 0.0106 | -0.0152
2 | Cc1cc2ncnn2cc1Nc1ncc2c(n1)n(C1CCOCC1)c(=O)n2C [AZD7648] + CN(C)CCCOc1ccc(-c2ccc3ncc4c(c3c2)n(C2CCOCC2)c(=O)n4C)cn1 [AZD0156] (first compound max 10 µM, 7x7, partner max 1 µM) | -0.0195 | 0.0397 | -0.002 | -0.0046 | -0.02 | 0.0416 | 0.0084 | -0.0077 | 0.0283 | -0.0422 | -0.0251 | 0.0326 | -0.0393 | 0.0245 | -0.0234 | -0.0228 | 0.0399 | 0.0055 | -0.0139 | 0.0053
3 | Cc1cc2ncnn2cc1Nc1ncc2c(n1)n(C1CCOCC1)c(=O)n2C [AZD7648] + C[C@@H]1COCCN1C2=NC(=NC(=C2)C3(CC3)[S@](=N)(=O)C)C4=C5C=CNC5=NC=C4 [AZD6738] (first compound max 10 µM, 7x7, partner max 10 µM) | 0.0412 | 0.0562 | -0.0318 | 0.0026 | 0.0075 | 0.0011 | 0.0428 | -0.102 | 0.0024 | 0.042 | -0.0036 | -0.0013 | 0.046 | -0.0266 | -0.0082 | -0.0172 | -0.028 | 0.0444 | -0.0015 | -0.0154
4 | Cc1cc2ncnn2cc1Nc1ncc2c(n1)n(C1CCOCC1)c(=O)n2C [AZD7648] + O=C(c1cc(Cc2n[nH]c(=O)c3ccccc23)ccc1F)N1CCN(C(=O)C2CC2)CC1 [Olaparib] (first compound max 10 µM, 7x7, partner max 10 µM) | -0.0678 | 0.0721 | -0.0384 | 0.0056 | -0.0422 | 0.0011 | -0.0431 | 0.0234 | 0.0054 | -0.0374 | -0.0432 | 0.0169 | -0.0801 | -0.0087 | -0.0341 | -0.0517 | -0.0464 | -0.042 | 0.0174 | 0.0242
5 | NC1(C(=O)N[C@@H](CCO)c2ccc(Cl)cc2)CCN(c2ncnc3[nH]ccc23)CC1 [Capivasertib] + CC(=O)c1c(C)c2cnc(Nc3ccc(N4CCNCC4)cn3)nc2n(C2CCCC2)c1=O [Palbociclib] (first compound max 10 µM, 7x7, partner max 10 µM) | -0.0489 | 0.0198 | -0.0856 | 0.0041 | -0.0046 | 0.0521 | -0.0201 | -0.0016 | 0.0128 | -0.0146 | -0.16 | -0.0448 | -0.0792 | -0.0055 | -0.0055 | -0.0106 | -0.0222 | -0.0115 | 0.0392 | 0.0311
6 | NC1(C(=O)N[C@@H](CCO)c2ccc(Cl)cc2)CCN(c2ncnc3[nH]ccc23)CC1 [Capivasertib] + CC(C)n1c(=O)n(C)c2cnc3cc(F)c(-c4ccc(OCCCN5CCCCC5)nc4)cc3c21 [AZD1390] (first compound max 10 µM, 7x7, partner max 0.3 µM) | -0.104 | 0.0202 | -0.143 | -0.0626 | -0.0358 | -0.0461 | -0.0688 | -0.051 | -0.0704 | -0.0712 | -0.0775 | -0.0435 | -0.0484 | 0.0169 | -0.0981 | -0.0392 | -0.0287 | -0.0476 | -0.064 | -0.037
7 | NC1(C(=O)N[C@@H](CCO)c2ccc(Cl)cc2)CCN(c2ncnc3[nH]ccc23)CC1 [Capivasertib] + CCN(CCO)CCCOc1ccc2c(Nc3cc(CC(=O)Nc4cccc(F)c4)[nH]n3)ncnc2c1 [AZD2811] (first compound max 10 µM, 7x7, partner max 1 µM) | -0.035 | -0.0005 | 0.017 | -0.0455 | 0.0028 | 0.0021 | -0.0284 | -0.079 | 0.0286 | -0.0032 | -0.0032 | -0.0523 | -0.0459 | 0.0059 | -0.0055 | -0.0347 | -0.0034 | 0.071 | 0.0122 | -0.0569
